Data set [1] relates to Normal human dermal fibroblasts (NHDF). The data set is described as follows: In vitro UVA/UVB photoprotection test on NHDF (Example 9). It is filed as cell-based. An excerpt:
Normal human dermal fibroblasts (NHDF) were used as an in vitro model. Cells were isolated from tissue specimens obtained from healthy patients undergoing plastic surgery at the Department of Plastic and Aesthetic Surgery (University Hospital Olomouc). The use of skin tissue was in accordance with the Ethics Committee of the University Hospital and Faculty of Medicine and Dentistry, Palacky University, Olomouc and all patients signed written informed consent. Fibroblasts were used between the 2nd and 4th passage. For all experiments the fibroblasts were seeded onto 96-well plates at a density of 0.8×10^5 cells/ml (0.2 ml per well) of cultivation medium (DMEM supplemented with fetal calf serum (10%, v/v), penicillin ([…]) and streptomycin (100 U/ml)). Test substances included compounds number 1, 3, 9, 15 and 20. Compounds were dissolved in DMSO and then diluted in serum free medium (DMEM supplemented with penicillin ([…]) and streptomycin (100 U/ml)). After 24 h incubation was cultivation medium changed to serum free medium containing test compound or DMSO (negative control). The final applied concentrations range was 3.9-31.3 μmol/ll. As a control serum free medium supplemented with appropriate concentration of DMSO (0.5%, v/v) was used. Rosmarinic acid was used as positive control. Each test compound was in parallel applied on two 96-well plates with NHDF. After 60 minutes incubation medium with test compound was discarded, cells were washed two-times with PBS and PBS supplemented with glucose (1 mg/ml) was applied. To study UVA photoprotection, a plate was exposed to a cytotoxic dose of UVA radiation (7.5 J/cm^2) using a solar simulator SOL 500 (Dr. Hoenle Technology, Germany) equipped with a H1 filter transmitting wavelengths of 320-400 nm. To study UVB photoprotection, a plate was exposed to a cytotoxic dose of UVB radiation (150 mJ/cm^2) using the solar simulator equipped with a H2 filter transmitting wavelengths of 295-320 nm. Intensity of UVA or UVB radiation was evaluated before each irradiation by UVA- or UVB-meter. Control (non-irradiated) plates were for the period of irradiation incubated in dark. After UVA or UVB exposure PBS with glucose was discarded and serum free medium was applied. After 24 hours (37° C., 5% CO2) cell damage was evaluated by neutral red (NR) incorporation into viable cells. Medium was discarded and NR solution (0.03% w/v, PBS) was applied. After 60 minutes NR solution was discarded, cells were fixed with a mixture of formaldehyde (0.5%, v/v) and CaCl2 (1%, m/v) in ratio 1:1 and then NR was dissolved in methanol (50%, v/v) with acetic acid (1%, v/v). After 5 minutes of intensive shaking absorbance was measured at 540 nm. Experiments were performed in four independent repetitions with use of cells from four donors to minimize individual sensitivity of donor cells. Photoprotective effect was evaluated by comparison of experimental data (absorbance) of test compounds with a positive control and a negative control (according to the following equation:
[formula] • As . . . absorbance of sample (cells pre-incubated with test compounds in serum free medium and irradiated) • Anc . . . absorbance of negative control (cells pre-incubated with s DMSO in serum free medium and non-irradiated=incubated in dark) • Apc . . . absorbance of positive control (cells pre-incubated with s DMSO in serum free medium and irradiated)

The next data set relates to caspase-3 activity. The data set is described as follows: UVB-induced caspase-3 activity in NHDF (Ac-DEVD-AMC). The format is cell-based, human. From the text: Normal human dermal fibroblasts (NHDF) were used as an in vitro model. Cells were isolated from tissue specimens obtained from healthy patients undergoing plastic surgery at the Department of Plastic and Aesthetic Surgery (University Hospital Olomouc). The use of skin tissue was in accordance with the Ethics Committee of the University Hospital and Faculty of Medicine and Dentistry, Palacky University, Olomouc and all patients signed written informed consent. Fibroblasts were used between the 2nd and 4th passage. For all experiments the fibroblasts were seeded onto 6-well plates at a density of 0.5×10^5 cells/cm^2 of cultivation medium (DMEM supplemented with fetal calf serum (10%, v/v), penicillin (100 mg/ml) and streptomycin (100 U/ml)).
Test compounds included 6-(tetrahydrofuran-2-ylmethylamino)-9-(tetrahydrofuran-2-yl)purine and positive control (rosmarinic acid). […] Intensity of UVB radiation was evaluated before each irradiation by UVB-meter. […] After 4 hours (37° C., 5% CO2) cell damage was evaluated by analysis of caspase-3 activity.
Caspase-3 activity was evaluated by specific substrate (Ac-DEVD-AMC). […] Fluorescence was measured at (400/505 nm) after 1 hour incubation (37° C., dark). Protein content was analyzed spectrophotometrically by Bradford protein assay (INFINITE M200, Tecan, Switzerland). […]

In the case of `Clc1nc(NCC2CCCO2)c2ncn(C3CCCO3)c2n1` (stereo not shown) [Compound 20, 2-chloro-6-(tetrahydrofuran-2-ylmethylamino)-9-(tetrahydrofuran-2-yl)purine], the “Protection (%)” value is given as 5.9% in data set [1] (UVA 7.5 J/cm^2, 3.9 μmol/l); 10.7% in data set [1] (UVA 7.5 J/cm^2, 7.8 μmol/l); 11.5% in data set [1] (UVA 7.5 J/cm^2, 15.6 μmol/l); 16.2% in data set [1] (UVA 7.5 J/cm^2, 31.3 μmol/l); 39.8% in data set [1] (UVB 150 mJ/cm^2, 3.9 μmol/l); 58.3% in data set [1] (UVB 150 mJ/cm^2, 7.8 μmol/l). The “Protection (%)” value came to 58.2% in data set [1] (UVB 150 mJ/cm^2, 15.6 μmol/l) and 60% in data set [1] (UVB 150 mJ/cm^2, 31.3 μmol/l).
On to `Clc1nc(NCc2ccco2)c2ncn(C3CCCO3)c2n1` (stereo not shown) [Compound 15, 2-chloro-6-furfurylamino-9-(tetrahydrofuran-2-yl)purine], for which the “Protection (%)” value worked out at 24.5% in data set [1] (UVA 7.5 J/cm^2, 3.9 μmol/l); 29.9% in data set [1] (UVA 7.5 J/cm^2, 7.8 μmol/l); 33.0% in data set [1] (UVA 7.5 J/cm^2, 15.6 μmol/l); 35.3% in data set [1] (UVA 7.5 J/cm^2, 31.3 μmol/l); 39.9% in data set [1] (UVB 150 mJ/cm^2, 3.9 μmol/l); 55.2% in data set [1] (UVB 150 mJ/cm^2, 7.8 μmol/l). Besides, the “Protection (%)” value was 53% in data set [1] (UVB 150 mJ/cm^2, 15.6 μmol/l) and 60.2% in data set [1] (UVB 150 mJ/cm^2, 31.3 μmol/l).
Take `OCc1ccc(CNc2ncnc3c2ncn3C2CCCO2)o1` (stereo not shown) [Compound 3, 6-(5-hydroxymethylfuran-2-ylmethylamino)-9-(tetrahydrofuran-2-yl)purine]: the “Protection (%)” value is 14.7% in data set [1] (UVA 7.5 J/cm^2, 3.9 μmol/l); 16.3% in data set [1] (UVA 7.5 J/cm^2, 7.8 μmol/l); 24.6% in data set [1] (UVA 7.5 J/cm^2, 15.6 μmol/l); 25.8% in data set [1] (UVA 7.5 J/cm^2, 31.3 μmol/l); 43.6% in data set [1] (UVB 150 mJ/cm^2, 3.9 μmol/l); 53.1% in data set [1] (UVB 150 mJ/cm^2, 7.8 μmol/l). For the same compound, the “Protection (%)” value in data set [1] (UVB 150 mJ/cm^2, 15.6 μmol/l) amounted to 47.4%; in data set [1] (UVB 150 mJ/cm^2, 31.3 μmol/l), 48.4%.
Consider `c1csc(CNc2ncnc3c2ncn3C2CCCO2)c1` (stereo not shown) [Compound 9, 6-(thiophen-2-ylmethylamino)-9-(tetrahydrofuran-2-yl)purine], for which the “Protection (%)” value in data set [1] (UVA 7.5 J/cm^2, 3.9 μmol/l) worked out at 41.3%; in data set [1] (UVA 7.5 J/cm^2, 7.8 μmol/l) it was 44.4%; in data set [1] (UVA 7.5 J/cm^2, 15.6 μmol/l), 45.7%; in data set [1] (UVA 7.5 J/cm^2, 31.3 μmol/l), 52.0%; in data set [1] (UVB 150 mJ/cm^2, 3.9 μmol/l), 34.9%; in data set [1] (UVB 150 mJ/cm^2, 7.8 μmol/l), 62.6%. For the same compound, the “Protection (%)” value in data set [1] (UVB 150 mJ/cm^2, 15.6 μmol/l) came to 64.4%; in data set [1] (UVB 150 mJ/cm^2, 31.3 μmol/l), 68.7%.
As to `c1nc(NCC2CCCO2)c2ncn(C3CCCO3)c2n1` (stereo not shown) [Compound 1, 6-(tetrahydrofuran-2-ylmethylamino)-9-(tetrahydrofuran-2-yl)purine], the “effect on UVB-induced activity of caspase-3 (in words)” value with caspase-3 activity (UVB, NHDF) is reported as “decreased”. The “effect on caspase-3 activity in non-irradiated cells (in words)” value with caspase-3 activity (non-irradiated NHDF, 2.5-20 μmol/l) was “did not showed negative effect”.

These data come from patent US10774084B2, “Adenine derivatives and their use as UV-photoprotective agents” (UNIVERZITA PALACKEHO V OLOMOUCI, priority 2015, dated 2020).
